CC(=O)c1ccc(O)cc1O
solubility (mole fraction)
Details | in benzene | in ethanol | in ethyl acetate | in isobutanol | in isopropanol | in methanol | in methyl acetate | in n-butanol | in n-propanol | in n-propyl acetate
293.15 K | 0.00045 | 0.118 | 0.118 | 0.0782 | 0.13 | 0.103 | 0.114 | 0.104 | 0.106 | 0.11
298.15 K | 0.00055 | 0.131 | 0.129 | 0.091 | 0.144 | 0.117 | 0.126 | 0.118 | 0.118 | 0.12
303.15 K | 0.00067 | 0.146 | 0.139 | 0.107 | 0.162 | 0.132 | 0.141 | 0.133 | 0.135 | 0.129
308.15 K | 0.00082 | 0.162 | 0.152 | 0.122 | 0.178 | 0.148 | 0.155 | 0.153 | 0.151 | 0.143
313.15 K | 0.00102 | 0.177 | 0.166 | 0.139 | 0.194 | 0.163 | 0.168 | 0.172 | 0.167 | 0.155
318.15 K | 0.00125 | 0.195 | 0.18 | 0.156 | 0.211 | 0.183 | 0.182 | 0.191 | 0.18 | 0.171
323.15 K | 0.0015 | 0.216 | 0.199 | 0.18 | 0.231 | 0.203 | 0.201 | 0.214 | 0.195 | 0.189
328.15 K | 0.00178 | 0.235 | 0.216 | 0.199 | 0.25 | 0.228 | 0.212 | 0.233 | 0.216 | 0.205
333.15 K | 0.00207 | 0.257 | 0.236 | 0.221 | 0.271 | 0.253 | – | 0.253 | 0.233 | 0.222
